# Experimental data reported in ChEMBL document CHEMBL1138125, “A new chemical tool for exploring the role of the PDE4D isozyme in leukocyte function” (Bioorg Med Chem Lett, 2006).
# Columns and labels:
# [1] = target: High affinity cGMP-specific 3',5'-cyclic phosphodiesterase 9A (Homo sapiens, UniProt O76083); assay: Inhibition of PDE9
# [2] = target: Dual 3',5'-cyclic-AMP and -GMP phosphodiesterase 11A (Homo sapiens, UniProt Q9HCR9); assay: Inhibition of PDE11
# [3] = target: cGMP-dependent 3',5'-cyclic phosphodiesterase (Homo sapiens, UniProt O00408); assay: Inhibition of PDE2
# Chain of cGMP-dependent 3',5'-cyclic phosphodiesterase (O00408 whole entry): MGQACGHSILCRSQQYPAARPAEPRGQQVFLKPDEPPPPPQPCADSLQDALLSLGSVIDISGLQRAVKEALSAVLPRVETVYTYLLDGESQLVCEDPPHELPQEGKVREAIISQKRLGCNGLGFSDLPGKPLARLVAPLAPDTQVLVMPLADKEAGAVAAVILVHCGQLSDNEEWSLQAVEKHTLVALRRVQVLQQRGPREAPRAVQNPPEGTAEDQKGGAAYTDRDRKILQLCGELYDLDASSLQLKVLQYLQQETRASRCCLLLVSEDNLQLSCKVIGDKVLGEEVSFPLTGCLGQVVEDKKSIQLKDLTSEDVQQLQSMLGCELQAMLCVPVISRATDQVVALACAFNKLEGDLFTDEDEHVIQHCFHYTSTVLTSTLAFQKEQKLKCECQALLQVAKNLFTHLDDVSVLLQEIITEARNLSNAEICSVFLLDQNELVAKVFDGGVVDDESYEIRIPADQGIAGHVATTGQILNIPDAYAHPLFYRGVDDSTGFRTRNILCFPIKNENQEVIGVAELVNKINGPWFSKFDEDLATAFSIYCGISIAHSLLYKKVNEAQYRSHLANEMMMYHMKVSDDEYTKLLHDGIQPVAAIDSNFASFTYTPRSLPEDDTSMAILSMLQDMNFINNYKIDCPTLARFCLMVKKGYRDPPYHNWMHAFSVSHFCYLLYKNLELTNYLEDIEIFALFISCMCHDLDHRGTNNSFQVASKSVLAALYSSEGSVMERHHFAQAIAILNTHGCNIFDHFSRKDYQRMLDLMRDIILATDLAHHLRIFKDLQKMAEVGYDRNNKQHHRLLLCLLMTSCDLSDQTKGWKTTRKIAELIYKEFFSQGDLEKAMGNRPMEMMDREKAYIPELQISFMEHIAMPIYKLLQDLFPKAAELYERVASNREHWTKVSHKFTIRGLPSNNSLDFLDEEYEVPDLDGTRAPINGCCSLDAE
# [4] = target: 3',5'-cyclic-AMP phosphodiesterase 4D (Homo sapiens, UniProt Q08499); conditions: Blood
# Chain of 3',5'-cyclic-AMP phosphodiesterase 4D (Q08499 whole entry): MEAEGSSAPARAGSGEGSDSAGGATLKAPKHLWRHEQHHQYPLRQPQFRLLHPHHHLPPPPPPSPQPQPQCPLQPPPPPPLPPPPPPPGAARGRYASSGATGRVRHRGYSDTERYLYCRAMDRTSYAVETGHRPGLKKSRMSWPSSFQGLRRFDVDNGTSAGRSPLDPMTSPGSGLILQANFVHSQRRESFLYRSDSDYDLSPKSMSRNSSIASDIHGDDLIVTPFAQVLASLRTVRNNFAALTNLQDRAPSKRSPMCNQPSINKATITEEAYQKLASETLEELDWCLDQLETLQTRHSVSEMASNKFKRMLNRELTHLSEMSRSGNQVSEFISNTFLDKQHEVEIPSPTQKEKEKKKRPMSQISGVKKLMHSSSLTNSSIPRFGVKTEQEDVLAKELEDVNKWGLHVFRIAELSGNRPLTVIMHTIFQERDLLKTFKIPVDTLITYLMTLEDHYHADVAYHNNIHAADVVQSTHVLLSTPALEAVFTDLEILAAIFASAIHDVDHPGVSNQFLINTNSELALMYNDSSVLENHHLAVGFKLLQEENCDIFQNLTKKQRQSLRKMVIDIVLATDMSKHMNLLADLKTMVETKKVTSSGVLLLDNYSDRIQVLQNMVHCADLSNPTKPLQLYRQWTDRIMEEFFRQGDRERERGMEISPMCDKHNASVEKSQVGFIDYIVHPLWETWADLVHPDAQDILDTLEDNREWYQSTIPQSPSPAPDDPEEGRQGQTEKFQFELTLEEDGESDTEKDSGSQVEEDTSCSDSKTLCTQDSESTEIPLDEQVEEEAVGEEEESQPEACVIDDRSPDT
# Description: Inhibition of release of Eosinophil derived neurotoxin in human whole blood
# [5] = target: High affinity cAMP-specific and IBMX-insensitive 3',5'-cyclic phosphodiesterase 8B (Homo sapiens, UniProt O95263); assay: Inhibition of PDE8B
# Chain of High affinity cAMP-specific and IBMX-insensitive 3',5'-cyclic phosphodiesterase 8B (O95263 whole entry): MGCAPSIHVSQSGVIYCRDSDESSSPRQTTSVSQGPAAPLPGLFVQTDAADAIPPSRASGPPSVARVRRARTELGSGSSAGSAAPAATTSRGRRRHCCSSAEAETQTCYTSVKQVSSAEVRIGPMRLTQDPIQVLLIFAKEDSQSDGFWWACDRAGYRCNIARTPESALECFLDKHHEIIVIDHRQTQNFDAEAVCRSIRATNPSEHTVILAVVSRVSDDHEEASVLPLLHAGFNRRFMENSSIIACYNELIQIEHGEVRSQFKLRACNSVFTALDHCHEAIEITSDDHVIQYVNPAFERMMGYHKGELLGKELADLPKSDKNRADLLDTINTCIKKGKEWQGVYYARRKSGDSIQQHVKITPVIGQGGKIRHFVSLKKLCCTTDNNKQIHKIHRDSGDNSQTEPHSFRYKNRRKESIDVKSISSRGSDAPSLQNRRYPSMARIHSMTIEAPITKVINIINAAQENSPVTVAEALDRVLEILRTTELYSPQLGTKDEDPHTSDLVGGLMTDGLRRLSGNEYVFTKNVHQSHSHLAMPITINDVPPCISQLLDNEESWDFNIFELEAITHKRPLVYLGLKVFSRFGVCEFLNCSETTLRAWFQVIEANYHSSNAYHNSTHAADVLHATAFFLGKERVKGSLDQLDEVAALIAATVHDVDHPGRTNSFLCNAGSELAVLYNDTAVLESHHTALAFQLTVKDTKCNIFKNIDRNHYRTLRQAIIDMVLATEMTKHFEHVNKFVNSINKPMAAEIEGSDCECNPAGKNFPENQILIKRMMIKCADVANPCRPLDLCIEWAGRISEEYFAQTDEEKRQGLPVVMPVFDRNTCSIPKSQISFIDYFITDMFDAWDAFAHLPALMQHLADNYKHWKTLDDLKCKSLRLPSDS
# Phosphodiesterase 3 = Phosphodiesterase 3 (Homo sapiens, UniProt Q14432+Q13370); assay: Inhibition of PDE3; assay type: protein assay
# [6] = target: High affinity cAMP-specific and IBMX-insensitive 3',5'-cyclic phosphodiesterase 8A (Homo sapiens, UniProt O60658); assay: Inhibition of PDE8A
# Chain of High affinity cAMP-specific and IBMX-insensitive 3',5'-cyclic phosphodiesterase 8A (O60658 whole entry): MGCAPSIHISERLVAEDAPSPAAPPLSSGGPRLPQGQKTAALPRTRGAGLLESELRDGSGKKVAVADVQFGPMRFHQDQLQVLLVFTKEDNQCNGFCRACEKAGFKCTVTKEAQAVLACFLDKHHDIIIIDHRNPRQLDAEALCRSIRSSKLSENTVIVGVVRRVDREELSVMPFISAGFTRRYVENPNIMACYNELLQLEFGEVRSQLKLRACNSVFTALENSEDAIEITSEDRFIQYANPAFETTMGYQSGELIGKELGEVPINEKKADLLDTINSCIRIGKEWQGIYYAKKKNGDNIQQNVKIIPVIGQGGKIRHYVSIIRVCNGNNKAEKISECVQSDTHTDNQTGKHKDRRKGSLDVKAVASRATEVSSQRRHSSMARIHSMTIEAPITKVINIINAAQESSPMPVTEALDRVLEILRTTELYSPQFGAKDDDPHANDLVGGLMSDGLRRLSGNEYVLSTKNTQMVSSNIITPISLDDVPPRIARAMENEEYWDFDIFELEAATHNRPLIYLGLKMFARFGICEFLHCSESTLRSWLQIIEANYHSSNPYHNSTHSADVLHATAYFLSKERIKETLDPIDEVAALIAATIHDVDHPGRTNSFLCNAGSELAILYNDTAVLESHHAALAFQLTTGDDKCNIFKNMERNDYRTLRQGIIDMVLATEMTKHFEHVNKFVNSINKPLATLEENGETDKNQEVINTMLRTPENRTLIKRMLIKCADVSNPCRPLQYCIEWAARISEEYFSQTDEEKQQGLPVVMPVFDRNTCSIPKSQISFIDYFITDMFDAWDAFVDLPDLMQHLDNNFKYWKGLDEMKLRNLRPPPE
# Chain of Dual 3',5'-cyclic-AMP and -GMP phosphodiesterase 11A (Q9HCR9 whole entry): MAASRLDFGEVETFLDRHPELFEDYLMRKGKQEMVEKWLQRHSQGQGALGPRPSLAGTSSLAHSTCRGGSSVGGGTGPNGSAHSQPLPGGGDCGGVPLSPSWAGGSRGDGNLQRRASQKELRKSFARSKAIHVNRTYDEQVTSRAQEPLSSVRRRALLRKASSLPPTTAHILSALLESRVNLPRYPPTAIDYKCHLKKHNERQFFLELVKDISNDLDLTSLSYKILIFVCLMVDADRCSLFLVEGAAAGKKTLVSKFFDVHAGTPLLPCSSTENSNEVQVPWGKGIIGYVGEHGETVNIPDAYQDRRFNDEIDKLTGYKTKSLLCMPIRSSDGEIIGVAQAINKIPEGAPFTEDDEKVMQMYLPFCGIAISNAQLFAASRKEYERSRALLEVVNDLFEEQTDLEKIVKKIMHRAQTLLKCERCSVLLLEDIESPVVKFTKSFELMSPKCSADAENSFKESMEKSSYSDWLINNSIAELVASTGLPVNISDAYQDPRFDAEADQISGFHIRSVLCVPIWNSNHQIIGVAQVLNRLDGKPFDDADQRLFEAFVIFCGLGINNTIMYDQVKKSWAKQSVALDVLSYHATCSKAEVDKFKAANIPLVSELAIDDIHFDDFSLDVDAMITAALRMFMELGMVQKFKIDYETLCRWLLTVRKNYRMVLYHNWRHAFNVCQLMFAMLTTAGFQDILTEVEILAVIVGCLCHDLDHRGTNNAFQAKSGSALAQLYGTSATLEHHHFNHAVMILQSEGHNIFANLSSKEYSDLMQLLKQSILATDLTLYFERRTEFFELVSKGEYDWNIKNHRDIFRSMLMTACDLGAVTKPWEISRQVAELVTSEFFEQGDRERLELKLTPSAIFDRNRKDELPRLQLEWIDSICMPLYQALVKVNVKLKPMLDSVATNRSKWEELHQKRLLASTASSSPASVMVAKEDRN
# Chain of High affinity cGMP-specific 3',5'-cyclic phosphodiesterase 9A (O76083 whole entry): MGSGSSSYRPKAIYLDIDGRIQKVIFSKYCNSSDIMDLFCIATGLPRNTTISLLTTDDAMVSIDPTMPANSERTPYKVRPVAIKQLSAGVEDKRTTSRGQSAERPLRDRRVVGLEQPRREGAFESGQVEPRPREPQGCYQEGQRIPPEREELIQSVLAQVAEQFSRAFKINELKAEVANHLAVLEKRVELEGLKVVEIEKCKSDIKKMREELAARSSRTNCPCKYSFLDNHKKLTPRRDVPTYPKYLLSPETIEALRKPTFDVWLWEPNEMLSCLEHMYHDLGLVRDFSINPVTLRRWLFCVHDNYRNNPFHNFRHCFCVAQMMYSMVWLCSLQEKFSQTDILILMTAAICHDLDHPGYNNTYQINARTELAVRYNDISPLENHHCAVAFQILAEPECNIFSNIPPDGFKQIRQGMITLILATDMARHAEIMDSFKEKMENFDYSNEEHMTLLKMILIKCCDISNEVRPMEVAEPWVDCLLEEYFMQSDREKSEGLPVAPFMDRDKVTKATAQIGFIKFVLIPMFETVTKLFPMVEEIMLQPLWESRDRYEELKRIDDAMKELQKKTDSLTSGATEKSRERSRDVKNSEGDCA
smiles,measurement,setting,value
COc1ccc(C2CNC(=O)C2)cc1OC1CCCC1 (configuration not stated) [ROLIPRAM],IC50,[1],> 16 µM
same,IC50,[2],> 16 µM
same,IC50,[3],> 16 µM
same,IC30,[4],0.283 µM
same,IC50,[5],> 16 µM
same,IC50,Phosphodiesterase 3,> 16 µM
same,IC50,[6],> 16 µM
